Source: PubChem BioAssay (NCI)
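Values below derive from 48-hour exposures of cells grown in 96-well plates, with endpoints linearly interpolated between the two concentrations bracketing the appropriate inhibition level. TGI is the concentration that stops growth completely.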

How the values were obtained:
Assay in all cases: NCI tumour cell line growth inhibition, 48 h
CAKI-1 renal = system: CAKI-1 renal
U251 CNS = system: U251 CNS
XF 498 CNS = system: XF 498 CNS
SNB-19 CNS = system: SNB-19 CNS
LXFL 529 NSCLC = system: LXFL 529 NSCLC
SK-MEL-2 melanoma = system: SK-MEL-2 melanoma
CCRF-CEM leukemia = system: CCRF-CEM leukemia
LOX IMVI melanoma = system: LOX IMVI melanoma
KM12 colon = system: KM12 colon
HCC-2998 colon = system: HCC-2998 colon
DMS 273 small cell lung = system: DMS 273 small cell lung
EKVX NSCLC = system: EKVX NSCLC
HOP-92 NSCLC = system: HOP-92 NSCLC
SNB-78 CNS = system: SNB-78 CNS
A498 renal = system: A498 renal
OVCAR-8 ovarian = system: OVCAR-8 ovarian
TK-10 renal = system: TK-10 renal
RXF 393 renal = system: RXF 393 renal
SNB-75 CNS = system: SNB-75 CNS
M14 melanoma = system: M14 melanoma
RPMI-8226 leukemia = system: RPMI-8226 leukemia
SF-539 CNS = system: SF-539 CNS
NCI-H460 lung = system: NCI-H460 lung
DMS 114 small cell lung = system: DMS 114 small cell lung
SF-268 CNS = system: SF-268 CNS
MALME-3M melanoma = system: MALME-3M melanoma
DLD-1 colon = system: DLD-1 colon
UACC-257 melanoma = system: UACC-257 melanoma
HT29 colon = system: HT29 colon
HOP-62 NSCLC = system: HOP-62 NSCLC
SW-620 colon = system: SW-620 colon
RXF-631 renal = system: RXF-631 renal
UO-31 renal = system: UO-31 renal
K-562 leukemia = system: K-562 leukemia
NCI-H522 lung = system: NCI-H522 lung
A549 NSCLC = system: A549 NSCLC
MOLT-4 leukemia = system: MOLT-4 leukemia
COLO 205 colon = system: COLO 205 colon
OVCAR-3 ovarian = system: OVCAR-3 ovarian
OVCAR-5 ovarian = system: OVCAR-5 ovarian
IGROV1 ovarian = system: IGROV1 ovarian
NCI-H23 lung = system: NCI-H23 lung
UACC-62 melanoma = system: UACC-62 melanoma
SN12C renal = system: SN12C renal
HCT-15 colon = system: HCT-15 colon
HL-60(TB) leukemia = system: HL-60(TB) leukemia
SF-295 CNS = system: SF-295 CNS
M19-MEL melanoma = system: M19-MEL melanoma
SK-MEL-28 melanoma = system: SK-MEL-28 melanoma
786-0 renal = system: 786-0 renal
HCT-116 colon = system: HCT-116 colon
SK-MEL-5 melanoma = system: SK-MEL-5 melanoma
OVCAR-4 ovarian = system: OVCAR-4 ovarian
KM20L2 colon = system: KM20L2 colon
SK-OV-3 ovarian = system: SK-OV-3 ovarian
ACHN renal = system: ACHN renal
HOP-18 NSCLC = system: HOP-18 NSCLC
SR leukemia = system: SR leukemia
NCI-H226 lung = system: NCI-H226 lung

Measured: TGI

Cc1nnc(NS(=O)(=O)c2ccc(N=Nc3cc(N=Nc4ccc(S(=O)(=O)Nc5nnc(C)s5)cc4)c4c(NC(=O)C(Cl)Cl)cccc4c3OC(=O)C(Cl)Cl)cc2)s1 (tested in a mixture with another compound)
39.8 µM: DMS 273 small cell lung
92.9 µM: XF 498 CNS
89.2 µM: EKVX NSCLC
89.1 µM: UACC-62 melanoma
48.5 µM: SK-MEL-28 melanoma
49.5 µM: NCI-H23 lung
43.7 µM: OVCAR-8 ovarian
97.5 µM: IGROV1 ovarian
33 µM: MOLT-4 leukemia
82 µM: SNB-75 CNS
41.7 µM: HCT-116 colon
73.4 µM: M14 melanoma
57.2 µM: M19-MEL melanoma
75.8 µM: SK-MEL-5 melanoma
55.5 µM: OVCAR-5 ovarian
64.7 µM: NCI-H522 lung
55.9 µM: RXF 393 renal
55.2 µM: OVCAR-3 ovarian
39 µM: OVCAR-4 ovarian
62.5 µM: DMS 114 small cell lung
77.8 µM: K-562 leukemia
42.4 µM: HL-60(TB) leukemia
42.9 µM: DLD-1 colon
21 µM: RPMI-8226 leukemia
60.2 µM: A549 NSCLC
64.1 µM: SK-MEL-2 melanoma
43 µM: SF-539 CNS
62.1 µM: HCC-2998 colon
65.3 µM: MALME-3M melanoma
95.6 µM: TK-10 renal
not listed: SK-OV-3 ovarian | ACHN renal | HOP-18 NSCLC | SR leukemia | NCI-H226 lung
> 100 µM: all other assays above

CCOC(=O)CC(C)C1(C(=O)OCC)CCCCC1=O (stereo not given)
50 µM: HCT-15 colon
39.4 µM: DMS 114 small cell lung
32.5 µM: DMS 273 small cell lung
60.6 µM: RPMI-8226 leukemia
55.4 µM: SR leukemia
not listed: HOP-92 NSCLC | SW-620 colon | NCI-H23 lung
> 100 µM: all other assays above

Nc1nc([O-])c2c(n1)[n+](C1OC(CO)C(O)C1O)cn2CCO (stereo not given)
not listed: SNB-19 CNS | HCC-2998 colon | MOLT-4 leukemia | NCI-H23 lung
> 100 µM: all other assays above
